Results reported in paper PMC12169608, “Peptidomimetic Phenoxymethyl Ketone Warheads as Potent Dual-Mode Inhibitors against SARS-CoV‑2 M^pro and Cathepsin” (Journal of Medicinal Chemistry, 2025).
In brackets after ≈: the same amount, converted by molar mass.

Key:
in vitro [1] = conditions: African green monkey
in vitro [2] = conditions: mouse, plasma, mouse plasma protein binding
physchem [3] = conditions: pH 7.4
[4] = molecular target: human cathepsin B (hCTSB) (Homo sapiens, UniProt P07858); test: hCTSB biochemical assay
[5] = tested on: luciferase-expressing VSV (ΔG) pseudotyped with Spike from SARS-CoV-2; test: microbe, parasite or virus in culture; format: cell-based; conditions: Vesicular stomatitis virus, Vero C1008, read-out: Entry reporter assay pEC50 (converted)
[6] = molecular target: T1, human cathepsin L (hCTSL) (Homo sapiens, UniProt P07711); test: hCTSL biochemical assay
T1 construct: purchased R&D Systems

[7] = molecular target: mouse cathepsin L (mCTSL) (Mus musculus, UniProt P06797); test: mCTSL biochemical assay; conditions: read-out: pIC50 (mouse CTSL) (converted)
SARS-CoV-2 M^pro = SARS-CoV-2 M^pro (Severe acute respiratory syndrome coronavirus 2, UniProt P0DTD1); test: biochemical; format: biochemical; conditions: read-out: M^pro biochemical assay pIC50 (converted)
SARS-CoV-2 = test: microbe, parasite or virus in culture; format: cell-based; conditions: Severe acute respiratory syndrome coronavirus 2, Vero C1008, read-out: SARS-CoV-2 CPE reduction assay pEC50 (converted)
in vitro [8] = conditions: mouse, hepatocytes
[9] = molecular target: mouse cathepsin B (mCTSB) (Mus musculus, UniProt P10605); test: mCTSB biochemical assay; conditions: read-out: pIC50 (mouse CTSB) (converted)
[10] = 3 h, 2 µM
[11] = Hamster hepatocyte stability; conditions: cryopreserved hepatocytes, t1/2 (hamster hepatocytes), without ritonavir
in vitro [12] = conditions: hamster, microsomes, pH 7.4
in vitro [13] = conditions: hamster, hepatocytes; for hepatocyte CLint at 2 h, 4 µM: CLint (hamster hepatocytes + ritonavir 4:1); for hepatocyte CLint at 2 h, 2 µM: CLint (hamster hepatocytes); for half-life at 2 h, 4 µM: t1/2 (hamster hepatocytes + ritonavir 4:1)
[14] = Hamster liver microsomal stability; conditions: microsomes, pH 7.4
trypsin = test: Protease panel: trypsin
physchem [15] = conditions: pH 7.4; remark: listed apart in the source
[16] = Mouse hepatocyte stability; conditions: mouse, cryopreserved hepatocytes
thrombin = molecular target: T2, thrombin (Homo sapiens, UniProt P00734); test: Protease panel: thrombin; format: biochemical
T2 construct: preincubated with thrombin (10 nM, Sigma); purchased Sigma-Aldrich

hamster CTSL = hamster CTSL (Mesocricetus auratus, UniProt Q812A7); test: hamster CTSL biochemical assay
[17] = Mouse liver microsomal stability; conditions: microsomes, pH 7.4
in vitro [18] = conditions: mouse, microsomes, pH 7.4
[19] = % remaining at 120 min (hamster hepatocytes, compound/ritonavir 1:1)
[20] = % remaining at 120 min (hamster hepatocytes, compound/ritonavir 2:1)
[21] = CLint (hamster hepatocytes, compound/ritonavir 1:1)
[22] = CLint (hamster hepatocytes, compound/ritonavir 2:1)
[23] = t1/2 (hamster hepatocytes, compound/ritonavir 1:1)
[24] = t1/2 (hamster hepatocytes, compound/ritonavir 2:1)

T1 sequence (P07711 114-333): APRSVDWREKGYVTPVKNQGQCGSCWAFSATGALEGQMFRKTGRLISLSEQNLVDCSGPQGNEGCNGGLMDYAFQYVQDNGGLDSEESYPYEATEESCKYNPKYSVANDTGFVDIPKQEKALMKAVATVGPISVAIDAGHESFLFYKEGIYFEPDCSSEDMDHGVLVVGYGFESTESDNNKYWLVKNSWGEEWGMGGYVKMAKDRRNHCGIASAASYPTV
mouse cathepsin L (mCTSL), sequence (P06797 114-334): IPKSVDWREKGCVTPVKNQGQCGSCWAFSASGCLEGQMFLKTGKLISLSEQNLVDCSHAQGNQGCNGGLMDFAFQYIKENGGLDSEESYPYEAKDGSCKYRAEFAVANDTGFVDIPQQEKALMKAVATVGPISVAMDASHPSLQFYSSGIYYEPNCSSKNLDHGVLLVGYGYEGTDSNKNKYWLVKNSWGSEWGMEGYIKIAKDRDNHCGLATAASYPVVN
mouse cathepsin B (mCTSB), sequence (P10605 80-339): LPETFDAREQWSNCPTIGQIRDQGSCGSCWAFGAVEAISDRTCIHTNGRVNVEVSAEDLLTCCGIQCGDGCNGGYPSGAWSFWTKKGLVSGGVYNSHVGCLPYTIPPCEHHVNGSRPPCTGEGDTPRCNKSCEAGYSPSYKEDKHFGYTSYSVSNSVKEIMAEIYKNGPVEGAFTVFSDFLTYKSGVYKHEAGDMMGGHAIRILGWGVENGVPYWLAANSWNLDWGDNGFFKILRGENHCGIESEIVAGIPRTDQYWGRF
hamster CTSL, sequence (Q812A7 entry or part of it): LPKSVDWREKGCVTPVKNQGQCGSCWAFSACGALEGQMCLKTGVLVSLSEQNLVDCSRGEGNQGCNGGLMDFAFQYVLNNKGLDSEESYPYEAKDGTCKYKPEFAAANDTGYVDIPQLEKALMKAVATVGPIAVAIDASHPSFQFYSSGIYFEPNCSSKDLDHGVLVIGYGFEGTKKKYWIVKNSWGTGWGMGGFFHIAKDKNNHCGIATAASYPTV

Row | SMILES | CC50 (in vitro [1]) | fraction unbound at 3 h, 2 µM (in vitro [2]; fraction bound (Fb)) | fraction unbound at 3 h, 2 µM (in vitro [2]; fraction unbound (Fu)) | logD at 1 h (physchem [3]) | hCTSB biochemical assay pIC50 [4] | EC50 [5] | hCTSL biochemical assay pIC50 [6] | IC50 [7] | IC50 (SARS-CoV-2 M^pro) | EC50 (SARS-CoV-2) | hepatocyte CLint at 2 h, 2 µM (in vitro [8]; CLint (mouse hepatocytes)) | IC50 [9] | mouse plasma protein binding, fraction bound (Fb) [10] | half-life at 2 h, 2 µM [11] | microsomal CLint at 1 µM (in vitro [12]) | remaining at 1 h, 1 µM (in vitro [12]) | remaining at 2 h, 1 µM (in vitro [13]; [19]) | remaining at 2 h, 1 µM (in vitro [13]; [20]) | hepatocyte CLint at 2 h, 4 µM (in vitro [13]) | hepatocyte CLint at 2 h, 2 µM (in vitro [13]) | further results
1 | O=C(N[C@@H](Cc1c[nH]c2ccccc12)C(=O)N[C@@H](C[C@@H]1CCNC1=O)C(=O)COc1c(F)c(F)c(CO)c(F)c1F)c1cc2ccccc2[nH]1 [compound 5, N-((S)-3-(1H-Indol-3-yl)-1-oxo-1-(((S)-3-oxo-1-((S)-2-oxopyrrolidin-3-yl)-4-(2,3,5,6-tetrafluoro-4-(hydroxymethyl)phenoxy)butan-2-yl)amino)propan-2-yl)-1H-indole-2-carboxamide] | > 10000 nM | 0.0121 | 0.0121 | 1.5 | 6.54 | 5750 nM | 7.64 | 224 nM | 41.7 nM | 1170 nM | 182 µL/min/1e6 cells | 12.3 nM | 98.79% | – | – | – | – | – | – | – | –
2 | CC(C)(C)[C@H](NC(=O)C(F)(F)F)C(=O)N1C[C@H]2[C@@H]([C@H]1C(=O)N[C@@H](C[C@@H]1CCNC1=O)C(=O)COc1c(F)c(F)c(CO)c(F)c1F)C2(C)C [compound 7, (1R,2S,5S)-3-((S)-3,3-Dimethyl-2-(2,2,2-trifluoroacetamido)butanoyl)-6,6-dimethyl-N-((S)-3-oxo-1-((S)-2-oxopyrrolidin-3-yl)-4-(2,3,5,6-tetrafluoro-4-(hydroxymethyl)phenoxy)butan-2-yl)-3-azabicyclo[3.1.0]hexane-2-carboxamide] | > 501 nM | 0.0355 | 0.0355 | 2.82 | 4.82 | – | < 4.30 | 35500 nM | – | 50.1 nM | – | 1860 nM | 96.45% | 13.8 min | 803 µL/min/mg | 0.15% | 20.8% | 3.47% | 41.9 µL/min/1e6 cells | 50.2 µL/min/1e6 cells | hepatocyte CLint at 1 µM (in vitro [13]; [21]): 12.5 µL/min/1e6 cells; hepatocyte CLint at 1 µM (in vitro [13]; [22]): 27.4 µL/min/1e6 cells; half-life at 2 h, 4 µM (in vitro [13]): 16.6 min; half-life at 1 µM (in vitro [13]; [23]): 55.5 min; half-life at 1 µM (in vitro [13]; [24]): 25.3 min; hCTSB activity (in words) ([4]; biochemical assay): no hCTSL and hCTSB activity was observed; hCTSL activity (in words) ([6]; biochemical assay): no hCTSL and hCTSB activity was observed; half-life at 1 µM [14]: 1.73 min; Trypsin inhibition at 10 μM (trypsin): 9.9 ± 6.6%; solubility kinetic at 24 h (physchem [15]): 71.3 µM (≈ 50.7 µg/mL); half-life at 1 µM [16]: 14.3 min; inhibition at 10 µM (thrombin): 0.4 ± 0.9%; pIC50 (hamster CTSL) (hamster CTSL): 5.07 ± 0.10; hepatocyte CLint at 1 µM (in vitro [8]; CLint (mouse hepatocytes + ritonavir 4:1)): 21.8 µL/min/1e6 cells; hepatocyte CLint at 1 µM (in vitro [8]; CLint (mouse hepatocytes)): 121 µL/min/1e6 cells
3 | COc1cccc2[nH]c(C(=O)N[C@@H](Cc3cccc(F)c3)C(=O)N[C@@H](C[C@@H]3CCNC3=O)C(=O)COc3c(F)c(F)c(C(C)(C)O)c(F)c3F)cc12 [compound 10, N-((S)-3-(3-Fluorophenyl)-1-oxo-1-(((S)-3-oxo-1-((S)-2-oxopyrrolidin-3-yl)-4-(2,3,5,6-tetrafluoro-4-(2-hydroxypropan-2-yl)phenoxy)butan-2-yl)amino)propan-2-yl)-4-methoxy-1H-indole-2-carboxamide] | > 1260 nM | 0.0105 | 0.0105 | 3.15 | 5.94 | 2040 nM | 6.95 | 933 nM | 7.08 nM | 120 nM | 47.6 µL/min/1e6 cells | – | 98.95% | 25.2 min | 500 µL/min/mg | 0% | 11.6% | 2.17% | 19.4 µL/min/1e6 cells | 27.5 µL/min/1e6 cells | hepatocyte CLint at 1 µM (in vitro [13]; [21]): 16.4 µL/min/1e6 cells; hepatocyte CLint at 1 µM (in vitro [13]; [22]): 30.7 µL/min/1e6 cells; half-life at 2 h, 4 µM (in vitro [13]): 35.7 min; half-life at 1 µM (in vitro [13]; [23]): 42.2 min; half-life at 1 µM (in vitro [13]; [24]): 22.6 min; half-life at 1 µM [17]: 1.9 min; microsomal CLint at 1 µM (in vitro [18]): 780 µL/min/mg; remaining at 1 h, 1 µM (in vitro [18]): 0%; half-life at 1 µM [14]: 2.77 min; solubility kinetic at 24 h (physchem [15]): 3.65 µM (≈ 2.67 µg/mL); half-life at 1 µM [16]: 36.4 min
